The test system of this assay is iAstrocytes. As to the kind of experiment: Time-lapse imaging of phagocytosis of pHrodoRed-conjugated myelin by iAstrocytes. The class given is cell-based, human. To be noted: imaging over 24 h. Here is the method:
FIGS. 3A-3B: (FIG. 3A) iAstrocytes are compatible for study with microglia co-cultures. Cultured iAstrocytes are subsequently incubated with iPSC-derived microglia (Abud et al., 2017). (FIG. 3B) iAstrocytes are labeled with GFAP and iPSC-derived microglia are labeled with Iba1 (light grey). The differentiation protocols for both microglia and astrocytes are serum-free and thus, make them compatible to study together without the confounds of serum activation of glia. Astrocytes phagocytose pHrodoRed-labeled myelin.
(FIGS. 4A-4C, FIG. 4A: 0 hour; FIG. 4B, 12 hours; and FIG. 4C, 24 hours). Phagocytosis can be visualized by pHrodoRed internalization which is absent at time zero (FIG. 4A). Phagocytosis of pHrodoRed-conjugated myelin is detected in iAstrocytes at 12 h (FIG. 4B), which gradually increases with time (24 h, FIG. 4C). FIG. 4D graphically depicts total red object area (y-axis) versus time in hours (x-axis).

Consider “TGFβ: Growth factor stated as necessary for quiescent astrocytes; inhibits myelin phagocytosis by iAstrocytes”, for which the “effect on phagocytosis of myelin by iAstrocytes” value is “inhibited”.
